Experimental data: patent US7741431B2, “Liposomes containing novel targeting and/or fusogenic peptides, preparations containing them and therapeutic use thereof” (The United States of America as represented by the …, priority 2005, dated 2010)
Entries after “also recorded” stand apart in the source; their conditions may differ.

Legend:
[1] = system: lung epithelial cells (A-549); assay type: cell-based, human
mast cells (RBL-2H3) = assay type: cell-based
[2] = Liposome fusion assay (Rhodamine B R18 dequenching)
Text: Liposomes are picked-up by cells by endocytosis and form an endosome. Within a few minutes the pH in the endosome drops to 5 and degradation begins. In order to accelerate the fusion of the liposome with the endosome membrane and release its DNA content into the cytoplasm, fusogenic peptides (Plank et al., 1994, Puyal et al., 1994), triggered by the low pH, are integrated into the liposomes membrane (0.1-2%). The most suitable fusogenic peptide and its concentration in the liposome are selected, using in-vitro fluorescence method (Hoekstra et al., 1984) at different pH levels.
Rhodamine B (R18) quenching curve: Rhodamine is characterized by self-quenching, which increases linearly with increasing concentration of R18. […] A total fusion of the two types of liposomes would result in a reduction of R18 concentration or quenching by ˜50%. Since liposomes also tend to fuse with their own type, this high level of fusion can never be achieved.
Liposomes containing 8 Mol % of R18 are mixed with liposomes conjugated to the fusion peptide at pH 7.4 and the fluorescence is measured using […] at λ=550 nm and emission at λ=580 nm. The pH is adjusted to 5.0 by adding few drops of 1N HCl and the change in fluorescence is measured. The total fluorescence is then determined by treating the mixture with Triton X-100. […]

Row | Substance | binding / targeting to lung epithelial cells [1] | binding / targeting to mast cells (mast cells (RBL-2H3)) | activity as a fusogen [2]
1 | SEQ ID NO: 1: targeting peptide whose sequence derives from endothelin-1, for lung mast cells and lung epithelial cells (CHLDIIW) | efficient targeting peptide; also recorded: high affinity | efficient targeting peptide; also recorded: high affinity | 
2 | SEQ ID NO: 2: fusogenic peptide derived from the amphiphatic, pH-dependent peptide of influenza virus hemagglutinin (CGYWGDIMGEWGDEIFGEIAGFLG) |  |  | highly active
